This note sets out measurements from patent US8114406B2, “Peptides and their utility in modulation of behavior of cells expressing α3β1 integrins” (The United States of America as represented by the …, priority 1999, dated 2012).

Test [1] has as its system MDA-MB-435 breast carcinoma cells. As to the kind of experiment: Inhibition of MDA-MB-435 cell adhesion to immobilized peptide 678 (microscopic adhesion assay). It counts as cell-based, human. The protocol: (§1) Adhesion assays of cells other than small cell lung carcinoma (SCLC)-Adhesion was measured on polystyrene or glass substrates coated with peptides or proteins as previously described (Guo et al., 1992). Peptides dissolved in PBS at 0.4 to 50 μM were incubated in polystyrene microliter plate wells overnight at 4° C. The wells were washed 3 times with distilled water. Adsorbed peptide was quantified using the BCA assay (Pierce Chemical) measuring absorbance at 570 and 630 nm as described by the supplier's protocol. The assay for adsorption was calibrated using purified peptide in solution as a standard. After blocking with 1% BSA in Dulbecco's PBS, adhesion assays were performed by adding cells suspended in DMEM (BAE cells) or medium 199 (human cells) containing 1 mg/ml BSA. Cell attachment and spreading was quantified microscopically.

In test [2] the test system is chick chorioallantoic membrane (CAM) angiogenesis. The test can be described thus: Chick chorioallantoic membrane (CAM) angiogenesis assay. It counts as in vivo, chicken. As to conditions: for Angiogenic response (% inhibition): relative to control gels, mean ± SD. On the procedure: Fertilized Leghorn chicken eggs were obtained from Ramona Duck farm (Westminster, Calif.). At day 3 of development, the embryos were placed on 100 mm petri dishes. Assays were performed as previously described (Iruela-Arispe et al., 1999). […] Peptides were filtered on Centricon P100 prior to their analysis on the CAM assays to eliminate traces of endotoxin. Pellets were applied to the outer ⅓ of the CAM, and the assay was performed for 24 h. Detection of capillary growth was done by injection of FITC-dextran in the bloodstream and observation of the pellets under a fluorescent inverted microscope. Positive controls (growth factors and vehicle), as well as negative controls (vehicle alone) were placed in the same CAM and used as reference of 100% stimulation or baseline inhibition (0%), and response to the peptides was determined according to these internal controls. Assays were performed in duplicate in each CAM and in four independent CAMs (total of 8 pellets).

Test [3] has as its system HDME cells. The test can be described thus: HDME cell spreading on coated substrates. It counts as cell-based, human. On the procedure:
Spreading was determined microscopically for cells with no additions, in the presence of 10 μM peptide 678, or in the presence of 30 μM of the control peptide 690. Results are presented as mean±SD, n=3. […] The percent spread cells was determined at 60 min.
as §1

Test [4] deals with MDA-MB-435 cells. As to the kind of experiment: MDA-MB-435 cell chemotaxis in modified Boyden chambers. It counts as cell-based, human. As to conditions: peptide in lower well; 7 h. On the procedure:
FIGS. 10A and 10B display the measurement of MDA-MB-435 cell chemotaxis. Panel A: Dose-dependence for stimulation of MDA-MB-435 cell motility by peptide 678 added to the lower well of a modified Boyden chamber. Cells migrated to the lower surface of an 8 μm pore polycarbonate filter were quantified microscopically after 7 h, mean±SD, n=3 for a representative experiment. […] Chemotaxis of untreated cells (striped bars) or cells treated with 10 nM IGF1 in the upper chamber (solid bars) was determined after 7 h and is presented as mean±S.D., n=3.

Test [5] has as its system BAE cells. The test can be described thus: Scratch wound repair of BAE cells. The test is classed as cell-based, bovine. To be noted: cells arrested using 5-fluorouracil; 24 h. On the procedure:
BAE cells were seeded at a density of 2×10^5 cells/well of 6 well tissue culture plates in complete growth medium supplemented with 10% FBS. After the cells formed a confluent cobblestone, cells were arrested using 10 μg/ml 5-fluorouracil for 48 h. Scrape wounds of 2 mm, width were made in the wells, and the cells were further incubated with medium containing 10% FBS, 10 μg/ml 5 fluorouracil and peptides 678, 709, or 690. Measurements of the distance between the wound margins were taken at 0 and 24 h, and the net migration is expressed as mean±SEM for triplicates.
The in vitro wound healing assay used was a slight modification of that described by Joyce et al. (Joyce et al., 1989). A confluent monolayer of BAE cells pretreated with 10 μg/ml 5-fluorouracil for […] were used in this assay. […] Mitosis of the BAE cells in the monolayers was inhibited by addition of 5-fluorouracil, so that the rate of wound closure was due solely to the migration of cells into the wound sites. The distances between the wound margins were measured as soon as the wound was made and 24 hours later using a grid incorporated into the eye piece of the microscope. All data represent the results obtained from three independent scratch wounds for each peptide tested.

The test system of test [6] is MDA-MB-435 cells. The test can be described thus: MDA-MB-435 cell spreading on matrix proteins, inhibition by soluble peptide. It counts as cell-based, human. As to conditions: 10 μM peptide 678 (FIG. 4A). The protocol: FIGS. 4A and 4B are graphs illustrating the inhibition of breast carcinoma cell spreading on matrix proteins by peptide 678. […] Cell spreading is presented as mean±SD, n=3. Panel B: Inhibition of MDA-MB-435 cell attachment to surfaces coated with 10 μM peptide 678 (●) or laminin peptide GD6 (◯) was measured in the presence of the indicated concentrations of peptide 678 added in solution.
as §1

In the next test the test system is HUVE cells. As to the kind of experiment: HUVE cell proliferation. The test is classed as cell-based, human. The protocol: Briefly, 100 μl of a 5×10^4 cell/ml suspension of BAE cells were seeded in triplicate into 96 well tissue culture plate in DMEM medium containing 1% FCS, 10 ng/ml of FGF2 and peptides at 1-40 μM concentrations. Cells were incubated for 72 h, and proliferation was measured using the Celltiter tetrazolium assay (Promega). […] Proliferation was determined at 72 h, and is presented as a percent of the control, mean±S.D., n=3 for experimental points and n=6 for control.
Cell proliferation was measured using the Cell-Titer colorimetric assay (Promega) as previously described (Vogel et al., 1993). A 100 μl volume of BAE cell suspension at 50,000 cells/ml in DMEM containing 1% FBS and supplemented with 10 ng/ml FGF2 was plated in triplicate in 96 well tissue culture plates either in the presence of peptides in solution or in wells that were pre-coated with 100 μl of the peptides at […] overnight and aspirated just before adding cells. Cells were grown for 72 hours at 37° C. in a humidified incubator with 5% CO2. HUVEC proliferation was measured by the same protocol but using medium 199 containing 5% FCS without heparin. HDME cell proliferation was measured in MCDB growth medium without heparin, VEGF, or FGF2.

In test [7] the test system is HDME cells. The test can be described thus: HDME cell proliferation. It counts as cell-based, human.
Method: (§2) Briefly, 100 μl of a 5×10^4 cell/ml suspension of BAE cells were seeded in triplicate into 96 well tissue culture plate in DMEM medium containing 1% FCS, 10 ng/ml of FGF2 and peptides at 1-40 μM concentrations. Cells were incubated for 72 h, and proliferation was measured using the Celltiter tetrazolium assay (Promega). […] Proliferation was determined at 72 h, and is presented as a percent of the control, mean±S.D., n=3 for experimental points and n=6 for control. […] FIG. 19E: HDME cell proliferation in MCDB growth medium with 5% FCS was determined in the presence of 10 ng/ml FGF2 and the indicated concentrations of TSP1 added in the medium (Δ) or immobilized on the substrate (●) or in wells coated with the indicated concentrations of peptide 678 (●).
(§3) Cell proliferation was measured using the Cell-Titer colorimetric assay (Promega) as previously described (Vogel et al., 1993). A 100 μl volume of BAE cell suspension at 50,000 cells/ml in DMEM containing 1% FBS and supplemented with 10 ng/ml FGF2 was plated in triplicate in 96 well tissue culture plates either in the presence of peptides in solution or in wells that were pre-coated with 100 μl of the peptides at 40° C. overnight and aspirated just before adding cells. Cells were grown for 72 hours at 37° C. in a humidified incubator with 5% CO2. […] HDME cell proliferation was measured in MCDB growth medium without heparin, VEGF, or FGF2.
The subject of test [8] is MDA-MB-435 breast carcinoma cells.
Method: MDA-MB-435 cell adhesion to microliter plate wells coated with 5 uM peptide 678 was determined in the presence of the indicated concentrations of soluble carboxamidomethyl-peptide 716 or peptide 716 covalently linked to FICOLL™ as previously described (Guo et al., 1997). After washing twice to remove unattached cells, adherent cells were quantified by detection of cellular hexosaminidase using p-nitrophenyl-N-acetylglucosaminide as substrate. Released p-nitrophenol was detected by absorbance at 405 nm. Results are mean+/−SD, n=3.
In this case, the adherent cells are quantified by detection of cellular hexosaminidase using p-nitrophenyl-N-acetylglucosaminidine as substrate. Released p-nitrophenol is detected by absorbance at 405 nm.
Test [9] has as its system BAE cells. As to conditions: added in solution.
Method: as §2, §3

Where two headings read alike, the source gives them in different places. Where no end group is shown, it is not given here.

For the sequence FQGVLQNVRFVF [Peptide 678], the IC50 in [1] (Table 3, 5 μM peptide 678, read-out: IC50 (μM), inhibition of MDA-MB-435 cell adhesion to immobilized peptide 678) amounted to 3.5 µM; in test [1] (microscopic adhesion assay, polystyrene coated with 5 μM peptide 678, peptides in solution, read-out: Inhibition of peptide 678 (IC50)), 3.5 µM; in test [8], 15 µM. Also, the “Angiogenic response (% inhibition)” value worked out at 2 ± 5% in test [2] (5 μM peptide), 17 ± 7% in test [2] (10 μM peptide) and 37 ± 9% in test [2] (20 μM peptide). In addition, the “angiogenesis stimulated by FGF2” value in test [2] (20 micromolar) is on record as 68±5 % of control. Moreover, the “angiogenesis stimulated by VEGF” value in [2] (20 micromolar) is given as 73±7 % of control. In test [2] (20 micromolar), the “angiogenesis stimulated by a mixture of both growth factors” value is 59±5 % of control. In addition, the “percent spread HDME cells on immobilized substrate” value is 28% in the test on HDME cells [3] (cells from sparse culture) and “No spreading” in the test on HDME cells [3] (cells harvested from a confluent monolayer). For the same sequence, the “concentration of maximal chemotactic response” value in the test on MDA-MB-435 cells [4] is 10 µM. For the same sequence, the “inhibition of BAE cell migration into the wound” value with BAE cells [5] is given as “dose-dependent inhibitor”. The “inhibition of MDA-MB-435 spreading on TSP1 and murine laminin-1/entactin” value in the test with MDA-MB-435 cells [6] is given as “strongly inhibited”. Further, the “inhibition of MDA-MB-435 spreading on fibronectin or type IV collagen” value with MDA-MB-435 cells [6] is listed as “did not inhibit”. For the same sequence, the “HUVE cell proliferation, peptide in solution” value in the test on HUVE cells (added in solution) is “significantly inhibited”. In the test with HUVE cells (immobilized on the substrate), the “HUVE cell proliferation on immobilized peptide” value is given as “increased their proliferation”. In the test on HDME cells [7], the “HDME cell proliferation after plating on immobilized substance” value is given as “enhancement”. Besides, the “inhibition of BAE cell proliferation” value in the test with BAE cells [9] is “inhibited”.
